Key:
sALS lymphoblasts = experiment: NRF2 pathway in sALS lymphoblasts; format: cell-based, human; settings: 20 μM, 24 h, vs untreated sALS lymphoblasts
Source text: (§1) Peripheral blood samples of all the individuals enrolled in this study were collected after written informed consent of the patients or their relatives (demographic information is presented in Table 9) to establish the lymphoblastoid cell lines (LCLs), by infecting peripheral blood lymphocytes with the Epstein–Barr virus (EBV), as previously described.[68] Participants or their relatives gave written informed consent. This study was approved by the Hospital Doce de Octubre and the Spanish Council of Higher Research Institutional Review Boards. All patients were diagnosed by applying the revised El Escorial criteria.[69] […] Genetic testing for SOD1, TARDBP, FUS, and C9ORF72 was performed in all cases.
(§2) LCLs were grown in suspensions in T flasks, in an RPMI-1640 medium containing 2 mM L-glutamine, 100 μg/mL streptomycin/penicillin, and 10% (v/v) fetal bovine serum (FBS) and maintained in a humidified 5% CO2 incubator at 37 °C.
(§3) Whole cell lysates were prepared in RIPA-buffer (25 mM Tris-HCl, pH 7.6, 150 mM NaCl, 1 mM EGTA, 1% Igepal, 1% sodium deoxycholate, 0.1% SDS, 1 mM PSMF, 1 mM Na3VO4, 1 mM NaF, 1 μg/mL aprotinin, 1 μg/mL leupeptin, and 1 μg/mL pepstatin). […] Immunoblots were analyzed as described previously.[48] […]
(§4) Total RNA extraction, reverse transcription, and quantitative polymerase chain reaction (PCR) were done as detailed in previous articles.[72] […]

SOD1-ALS lymphoblasts = experiment: NRF2 pathway in SOD1-ALS lymphoblasts; format: cell-based, human; settings: 20 μM, 24 h
Source text: as §1, §2, §3, §4

[1] = DPPH radical scavenging assay; format: physicochemical
Experimental: The antioxidant activity was determined by the 2,2-diphenyl-1-picrylhydrazyl hydrate (DPPH) assay.[65]−[67] All the measurements were performed in an 80% MeOH solution, with the final reaction volume being 3 mL. A stock of DPPH solution in DMSO (10^–2 M) was prepared and stored at −20 °C, and the same procedure was performed with the antioxidant solution. Then, the DPPH stock solution was diluted to 2 mL with a final concentration of 150 μM (final volume of 3 mL and final concentration of 100 μM). The antioxidant stock was sequentially diluted to 1 mL at 3, 9, 30, 90, and 300 μM (final volume of 3 mL and final concentrations of 1, 3, 10, 30, and 100 μM). The mixture was incubated at room temperature for 30 min. Once this time had passed, the absorbance was measured in a spectrophotometer at 517 nm. Trolox, caffeic acid, and ferulic acid were used as a standard (1, 3, 10, 30, and 100 μM final concentrations). A blank using 80% MeOH solution instead of the corresponding antioxidant was used in each assay. Two independent measurements of each sample were performed. Data were processed using Origin software, and sigmoidal fitting according to the DoseResp function was performed to extrapolate the IC50 (μM) of each antioxidant.

control lymphoblasts = experiment: NRF2 pathway in control lymphoblasts; format: cell-based, human; settings: 20 μM, 24 h
Source text: as §1, §2, §3, §4

Keap1–/– MEFs = experiment: qRT-PCR of NRF2 target genes in KEAP1-deficient MEFs; format: cell-based, mouse; settings: 20 μM, 4, 8 and 24 h
Experimental: (§5) Human embryonic kidney (HEK) 293T cells were grown in Dulbecco’s modified Eagle’s medium (DMEM) supplemented with 10% fetal bovine serum and 80 μg/mL gentamycin. Transient transfections were performed with calcium phosphate using reagents from Sigma. The Keap1^–/– mouse embryo fibroblasts (MEFs) and their corresponding wild-type Keap1^+/+ MEFs were kindly provided by Dr. Ken Itoh (Department of Stress Response Science, Center for Advanced Medical Science, Hirosaki University, Japan). MEFs were grown in DMEM supplemented with 10% fetal bovine serum, 1% penicillin/streptomycin, and 2 mm L-glutamine. SH-SY5Y cells were grown in DMEM and Ham’s F12 supplemented with 10% fetal bovine serum (FBS) and 1% penicillin/streptomycin. The medium was changed to serum-free DMEM without antibiotics 16 h before treatments. DMF (cat. no. 242926, Sigma-Aldrich) was used at 20 μM for 16 h.
(§6) Total RNA extraction, reverse transcription, and quantitative polymerase chain reaction (PCR) were done as detailed in previous articles.[72] Primer sequences are shown in Supporting Information Table S5. Data analysis was based on the ΔΔCT method with normalization of the raw data to housekeeping genes (Applied Biosystems). All PCRs were performed in triplicates.

HEK293T cells = experiment: MTT viability assay; format: cell-based, human; settings: 20 µM, Table S3
Experimental: (§7) HEK293T cells were plated in 24-well culture plates (75,000 cells/well) and incubated in a CO2 incubator. The next day, treatment was given according to the experimental requirement. Sixteen hours later, 50 μL of MTT solutions from the stock (5 mg/mL) was added, and cells were incubated in a CO2 incubator in the dark for 2 h. The medium was removed, and formazan crystals formed by the cells were dissolved using 500 μL of DMSO followed by transfer in 96-well plates. The absorbance was read at a 570 nm wavelength on a multiwell plate reader.[70]

MTT viability assay = format: cell-based, human; settings: human, HEK293T cells, HEK293T, 16 h, read-out: Cell viability (MTT)
Experimental: as §7

[2] = molecular target: NRF2–KEAP1 protein–protein interaction (Homo sapiens, UniProt Q14145); experiment: Fluorescence polarization (FP) assay; format: binding
GSK-3β = GSK-3β (Homo sapiens, UniProt P49841); experiment: GSK-3β kinase inhibition; format: biochemical
Keap1+/+ MEFs = experiment: qRT-PCR of NRF2 target genes in wild-type MEFs; format: cell-based, mouse; settings: 20 μM, 4, 8 and 24 h
Experimental: as §5, §6

Chain of NRF2–KEAP1 protein–protein interaction (Q14145 whole entry): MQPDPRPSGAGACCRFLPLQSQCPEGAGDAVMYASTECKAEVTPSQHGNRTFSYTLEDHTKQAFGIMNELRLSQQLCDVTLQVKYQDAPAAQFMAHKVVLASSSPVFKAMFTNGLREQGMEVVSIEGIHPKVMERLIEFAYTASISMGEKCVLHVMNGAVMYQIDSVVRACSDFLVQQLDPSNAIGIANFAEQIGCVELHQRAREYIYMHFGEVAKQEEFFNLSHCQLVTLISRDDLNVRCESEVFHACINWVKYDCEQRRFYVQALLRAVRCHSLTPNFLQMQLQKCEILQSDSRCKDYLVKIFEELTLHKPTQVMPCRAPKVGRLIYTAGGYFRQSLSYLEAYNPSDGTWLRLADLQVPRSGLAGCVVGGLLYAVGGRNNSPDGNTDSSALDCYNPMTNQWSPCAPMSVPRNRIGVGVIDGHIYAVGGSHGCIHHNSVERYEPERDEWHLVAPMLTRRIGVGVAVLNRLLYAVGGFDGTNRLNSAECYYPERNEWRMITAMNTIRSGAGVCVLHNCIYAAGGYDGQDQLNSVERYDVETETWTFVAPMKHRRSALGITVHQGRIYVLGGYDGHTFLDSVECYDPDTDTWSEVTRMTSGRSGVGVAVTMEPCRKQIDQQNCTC
Chain of GSK-3β (P49841 whole entry, species assumed): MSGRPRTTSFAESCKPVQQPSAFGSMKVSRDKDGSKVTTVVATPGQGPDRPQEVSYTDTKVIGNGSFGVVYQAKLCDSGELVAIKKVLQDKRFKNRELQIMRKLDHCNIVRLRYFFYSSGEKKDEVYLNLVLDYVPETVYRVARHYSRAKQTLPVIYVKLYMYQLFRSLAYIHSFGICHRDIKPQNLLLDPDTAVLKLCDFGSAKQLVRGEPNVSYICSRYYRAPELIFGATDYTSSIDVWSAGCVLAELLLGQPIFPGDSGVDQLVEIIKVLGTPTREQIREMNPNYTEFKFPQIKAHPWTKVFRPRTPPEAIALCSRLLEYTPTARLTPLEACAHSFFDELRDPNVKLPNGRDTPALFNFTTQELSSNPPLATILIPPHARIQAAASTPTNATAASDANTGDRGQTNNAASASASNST

EC50 ([1]; 80% MeOH, 30 min, 517 nm, read-out: Radical scavenging activity EC50 (DPPH method)): 9.68 µM
IC50 ([1]; supplementary CSV): 10.4 ± 0.7 µM
inhibition at 100 µM ([2]; 100 μM, read-out: FP % inhibition (± S.E.M.)): < 10%
inhibition of the NRF2–KEAP1 interaction ([2]; FP and DSF, 100 μM or lower concentrations): not able to inhibit
activity as an inhibitor of the kinase GSK-3β (GSK-3β): negative results
SMILES: O=C(CCc1ccc(O)c(O)c1)N1CCCN(S(=O)(=O)c2cccc3cnccc23)CC1 [Compound 1d, 3-(3,4-Dihydroxyphenyl)-1-(4-(isoquinolin-5-ylsulfonyl)-1,4-diazepan-1-yl)propan-1-one]
NRF2 and activity of its signaling pathway (sALS lymphoblasts): did not produce a significant increase
HMOX1 and NQO1 levels (mRNA and protein) (SOD1-ALS lymphoblasts): capable of inducing HMOX1 and NQO1 levels in a very significant way
NEF2L2 mRNA levels (control lymphoblasts): did not produce changes
levels of the NRF2 protein (control lymphoblasts): significantly increased
expression of HMOX1 (Keap1–/– MEFs): to a lesser extent than in the wild-type cells
expression of NQO1 (Keap1–/– MEFs): not capable of inducing
MTT (%) (HEK293T cells): < 20%
viability at 16 h, 20 µM (MTT viability assay; 20 μM): 100 ± 1.02%
viability at 16 h, 60 µM (MTT viability assay; 60 μM): 103.7 ± 0.837%
mRNA levels of HMOX1 and NQO1 (Keap1+/+ MEFs): increased the mRNA levels
